This series can be described thus: penetration of retinal into the skin (topical application). Particulars: retinal by itself.

Turning to `CC1=C(/C=C/C(C)=C/C=C/C(C)=C/C=O)C(C)(C)CCC1` [Retinal], the penetration rate result was “about 2%”.

(Values after patent US20130149362A1, “TREATMENT PRODUCT AND METHOD” (priority 2007, published 2013).)
